One compound from patent publication US20260308158A1, “TARGETING RNAS ASSOCIATED WITH TAUOPATHIES WITH SMALL MOLECULES” (University of Florida Research Foundation, Incorporated, priority 2023, published 2026) can be followed below.

Structures are written as SMILES.

Series [1] has as its system WT MAPT mini-gene pre-mRNA. Kind of series: Chem-CLIP / C-Chem-CLIP in HeLa cells transfected with WT mini-gene. The class given is cell-based. The following applies: HeLa, WT mini-gene. As to the method:
Measuring Cellular Occupancy by Chem-CLIP and C-Chem-CLIP. LAN5 cells were grown to ~80% confluency in 100 mm diameter dishes. HeLa cells were transfected as described in the Luciferase Reporter Assay to Study Exon 10 Alternative Splicing except they were re-plated in 100 mm diameter dishes and grown to ~80% confluency (~1 day). The cells were then treated with 1.5 μM of 3 or 4 for 12 h. For C-Chem-CLIP, dilutions of competing compounds 1 or 2 were pre-incubated with cells for 12 h prior to adding 3. After addition of 3, the cells were incubated for an additional 12 h. After the treatment period, whether for Chem-CLIP or C-Chem-CLIP studies, the cells were washed with 10 mL of 1×DPBS. Ice-cold 1×DPBS (10 mL) was then added to the plate followed by irradiation with 365 nm light in a UV Stratalinker 2400 (Stratagene). Cells were scraped with a cell scraper, transferred to a 15 mL conical vial, and collected by centrifugation. Total RNA was extracted using TRIzol LS Reagent (Invitrogen) per the manufacturer's protocol. […]
RT-qPCR was performed on RNA samples before and after pull-down as described in Real-Time Quantitative PCR to enable calculation of fold enrichment in the pulled down samples. Relative fold enrichment of tau pre-mRNA was measured using Equation 3: […]

The next series concerns the target DDPAC MAPT SRE RNA. Kind of series: Fluorescent binding affinity, DDPAC SRE RNA. The following applies: inherent fluorescence, n=3. As to the method: Fluorescent Binding Affinity Measurements. Binding assays were completed as previously described.^30 Briefly, the RNA of interest was folded in 1× Assay Buffer-1 (AB1: 8 mM Na2HPO4, pH 7.0, 185 mM NaCl, and 1 mM EDTA) by heating at 95° C. for 30 s followed by slowly cooling to room temperature. Bovine serum albumin (BSA) was then added to a final concentration of 40 μg/mL to afford 1× Assay Buffer-2 (AB2: 8 mM Na2HPO4, pH 7.0, 185 mM NaCl, 1 mM EDTA, and 40 μg/mL BSA). The RNA solution was serial diluted with 1×AB2. Then, compound of interest was added to the RNA solutions to a final concentration of 0.5 μM. […] Fluorescence intensity was measured using a Tecan Plate Reader (Gain: 100, Integration time: 40 μs). […] The change in fluorescence of the small molecule was calculated by its comparison to samples lacking RNA. Binding affinity was calculated using Equation 1, as previously described:^30
where I and I0 are the measured fluorescence intensity of the compound with or without RNA, respectively, Δε is the difference between the fluorescence intensity with the infinite concentration of RNA and the fluorescence intensity without RNA, [SM]0 and [RNA]0 are the concentrations of the small molecule (SM) and RNA, respectively, and Kd is the dissociation constant.

The subject of another series is DDPAC model RNA. Briefly: Optical melting, DDPAC RNA. The series is classed as binding. Conditions: 2 at 1.5 μM. As to the method:
Optical Melting Experiments. The thermal stabilities of WT, DDPAC, and DDPAC+I17T model RNAs were analyzed by optical melting in the presence or absence of compound 1 or 2 as previously described.^18 The RNAs (2 μM) were heated to 95° C. in 1×PBS buffer and slowly cooled to room temperature. The samples were then cooled to 15° C. in the presence of compound 1 (10 μM; 0.1% (v/v) DMSO), 2 (1.5 μM; 0.1% (v/v) DMSO) or vehicle (0.1% (v/v) DMSO) and then heated to 85° C. at a rate of 1° C. per min. Absorbance as a function of temperature was measured at 260 nm using a Beckman Coulter DU800 UV/vis spectrophotometer. Melting curves were fitted with MeltWin 3.5.^31

A further series has as its system HeLa cells. Kind of series: Cell viability (WST-1), untransfected HeLa cells. The following applies: up to 12.5 μM, 48 h. The series is classed as cell-based. As to the method: (§1) Cell Viability. Cells were treated with DMSO (vehicle) or compound 2 for 48 h at 37° C. After the removal of the DMSO or compound-containing growth medium, the cells were washed with 1×DPBS and incubated in growth medium containing 10% (v/v) WST-1 cell proliferation reagent (Roche) or CellTiter Fluor (Promega; per the manufacturer's recommend protocol) for 40 min. The absorbance of the solution was measured at 450 and 650 nm with a SpectraMax M5 plate reader (Molecular Devices) for cells treated with WST-1. The background signal at 650 nm was subtracted from the WST-1 signal at 450 nm for analysis. For cells treated with CellTiter Fluor, the fluorescence was measured with 390 nm excitation and 505 nm emission wavelengths. Cells treated with a compound were compared to vehicle treated cells to determine the effect of the compound on cell viability.
(In general: Formazan colour is commonly taken as a measure of viable cells.)

Series [2] is described as follows: Cell viability (WST-1), untransfected HeLa cells. The series is classed as cell-based. The following applies: human, hela cells, 12.5 μM, WST-1, read-out: reduction of viability of HeLa cells. As to the method: as §1

Turning to `COc1cc(N)ncc1CCCN(C)CCCn1cnc2c3ccccc3n(C)c2c1=O` [Compound 2, 3-(3-((3-(6-amino-4-methoxypyridin-3-yl)propyl)(methyl)amino)propyl)-5-methyl-3,5-dihydro-4H-pyrimido[5,4-b]indol-4-one], the “competition of the interaction of 3 with reporter” value in series [1] is “competed dose dependently”. For the same compound, binding on DDPAC MAPT SRE RNA was put at a Kd of 580 ± 100 nM. Moreover, the “increase of Tm” value in the series with DDPAC model RNA is 1.36±0.11 °C. Moreover, the “effect on viability of HeLa cells” value in the series on HeLa cells is listed as “No effect on the viability”. For the same compound, in series [2], the cytotoxicity at 48 h, 12.5 µM was 17 ± 3%.
